Data on 5 molecules can be found in article PMC6321475, “Synthesis and Evaluation of the 4-Substituted 2-Hydroxy-5-Iodochalcones and Their 7-Substituted 6-Iodoflavonol Derivatives for Inhibitory Effect on Cholinesterases and β-Secretase” (International Journal of Molecular Sciences, 2018).

What all share (format): biochemical
The target in assay [1] is acetylcholinesterase (AChE) (Homo sapiens, UniProt P22303). Briefly: biochemical. Conditions: for IC50: mean ± SD, three independent experiments.
In assay [2] the target is butyrylcholinesterase (BChE) (Homo sapiens, UniProt P06276). Briefly: biochemical. The conditions noted are these: for IC50: mean ± SD, three independent experiments.
For assay [3], the target named is T1, BACE-1 (Homo sapiens, UniProt P56817).
T1 construct: purchased Pan Vera; host or cells: baculovirus-expressed
Briefly: In vitro BACE-1 inhibitory FRET assay. Conditions: 60 min at 25 °C, pH 4.5.

Assay [4] addresses AChE (Homo sapiens, UniProt P22303). Briefly: Kinetic study against AChE (Lineweaver-Burk and Dixon plots). How it is done: (§1) The experiment was performed using different inhibitor (2h, 3b or 3p) concentrations (0, 2.5, 3.5 and 5 µM) and substrate (acetylthiocholine iodide (ACh) or butyrylthiocholine iodide (BCh) concentrations (0.1, 0.5, 2.5 and 5 µM). The reaction was carried out in triplicate and the absorbences were measured at 412 nm after every 1 s. A linear graph of the absorbences against time were plotted to obtain the velocity. Finally, the lineweaver burk plot (reciprocal of the velocity versus reciprocal of the subtrate concentrations) was plotted. as well as the Dixon plot (reciprocal of the velocity versus inhibitor concentration). The inhibition constant Ki, was determined by calculating the straight line equations and identifying the point at which the lines would intersect.

The target of assay [5] is BChE (Homo sapiens, UniProt P06276). Nature of the assay: Kinetic study against BChE (Lineweaver-Burk and Dixon plots). The conditions noted are these: for Ki: Dixon plot, substrate butyrylthiocholine iodide; for mode of inhibition of BChE: kinetic analysis. How it is done: as §1
The target in assay [6] is T1, BACE-1. Nature of the assay: Kinetic study against BACE-1 (Lineweaver-Burk and Dixon plots). The conditions noted are these: Dixon plot intercept. How it is done:
The kinetics assays were conducted according to the manufacturer’s instructions similarly to the inhibitory assay except that change in fluorescence over time was monitored at 590 nm without the addition of the stop solution. Each substrate (0.15, 0.30, 0.45 µM) and compound (0, 4, 8 and 16 µM) concentration pair were prepared in triplicate and analyzed. The Lineweaver Burk and Dixon plots were plotted as described in Section 3.7.1.

The IC50 is the concentration that gives 50% inhibition. The low end stands for higher potency, the high end for lower potency. A word on the Ki: it is the dissociation constant of the complex between target and ligand, obtained from inhibition or displacement. A lower Ki goes with a stronger hold on the target.

Chain of butyrylcholinesterase (BChE) (P06276 29-602): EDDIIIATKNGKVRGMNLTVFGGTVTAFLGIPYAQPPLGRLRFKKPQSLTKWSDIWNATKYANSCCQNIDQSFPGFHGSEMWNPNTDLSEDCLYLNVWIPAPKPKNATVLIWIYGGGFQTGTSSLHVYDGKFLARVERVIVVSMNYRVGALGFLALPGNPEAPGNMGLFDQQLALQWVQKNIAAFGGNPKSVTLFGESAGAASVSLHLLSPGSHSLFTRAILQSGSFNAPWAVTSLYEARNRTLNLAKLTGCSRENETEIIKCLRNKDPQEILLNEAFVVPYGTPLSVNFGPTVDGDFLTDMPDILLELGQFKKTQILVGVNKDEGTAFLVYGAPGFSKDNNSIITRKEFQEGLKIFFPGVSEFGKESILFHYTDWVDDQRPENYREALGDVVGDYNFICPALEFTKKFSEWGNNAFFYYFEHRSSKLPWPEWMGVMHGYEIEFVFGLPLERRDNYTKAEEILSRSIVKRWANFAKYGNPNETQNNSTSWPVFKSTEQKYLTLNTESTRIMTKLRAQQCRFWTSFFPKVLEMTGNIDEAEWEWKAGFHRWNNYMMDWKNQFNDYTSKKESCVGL
Chain of BChE (P06276 29-602): as above
T1 sequence (P56817 46-501): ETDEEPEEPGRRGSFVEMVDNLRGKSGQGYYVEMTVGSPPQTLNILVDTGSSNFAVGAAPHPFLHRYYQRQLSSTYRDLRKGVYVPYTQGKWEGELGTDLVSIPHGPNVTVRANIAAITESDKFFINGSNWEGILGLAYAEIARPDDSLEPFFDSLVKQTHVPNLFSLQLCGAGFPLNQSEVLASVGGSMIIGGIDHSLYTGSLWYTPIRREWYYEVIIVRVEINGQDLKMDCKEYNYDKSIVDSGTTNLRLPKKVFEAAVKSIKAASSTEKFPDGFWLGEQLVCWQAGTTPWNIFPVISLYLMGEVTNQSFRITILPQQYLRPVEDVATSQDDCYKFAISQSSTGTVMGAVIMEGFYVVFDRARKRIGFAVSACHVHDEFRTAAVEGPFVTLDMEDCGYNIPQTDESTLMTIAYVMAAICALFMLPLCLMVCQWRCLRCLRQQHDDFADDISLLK
Chain of acetylcholinesterase (AChE) (P22303 32-614): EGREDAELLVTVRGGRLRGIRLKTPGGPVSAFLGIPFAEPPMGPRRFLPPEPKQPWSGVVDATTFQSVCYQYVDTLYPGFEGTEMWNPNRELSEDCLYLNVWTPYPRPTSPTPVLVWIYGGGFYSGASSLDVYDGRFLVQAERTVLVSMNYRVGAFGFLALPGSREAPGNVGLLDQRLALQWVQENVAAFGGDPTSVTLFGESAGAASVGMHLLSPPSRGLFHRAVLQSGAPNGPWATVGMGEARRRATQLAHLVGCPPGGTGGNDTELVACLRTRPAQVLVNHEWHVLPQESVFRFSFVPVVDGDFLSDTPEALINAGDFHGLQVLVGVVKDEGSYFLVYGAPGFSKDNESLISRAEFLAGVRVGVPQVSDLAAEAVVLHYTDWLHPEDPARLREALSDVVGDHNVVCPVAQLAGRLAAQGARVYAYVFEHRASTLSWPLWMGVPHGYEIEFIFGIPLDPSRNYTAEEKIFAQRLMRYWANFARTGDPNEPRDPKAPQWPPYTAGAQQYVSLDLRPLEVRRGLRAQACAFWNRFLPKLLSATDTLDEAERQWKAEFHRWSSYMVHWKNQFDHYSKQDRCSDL
Chain of AChE (P22303 32-614): as above

`O=c1c(O)c(-c2ccc(F)cc2)oc2cc(F)c(I)cc12` [Compound 3b, 7-Flu.oro-2-(4-fluorophenyl)-3-hydroxy-6-iodo-4H-chromen-4-one]: in assay [1], the “SI BChE/AChE” value is recorded as 9.22 and the concentration for half-maximal inhibition (IC50) came out at 3.23 ± 0.02 µM. In assay [2], the “SI AChE/BChE” value worked out at 0.11 and half-maximal inhibition (IC50) required 29.78 ± 0.04 µM. This molecule yielded an IC50 in assay [3] of 32.18 ± 0.15 µM. Besides, the inhibition constant (Ki) in assay [4] (Dixon plot, substrate acetylthiocholine iodide) is 4.34 ± 1.1 µM. In assay [4] (kinetic analysis), the “mode of inhibition of AChE” value is recorded as “mixed type of inhibition”.
On to `COc1ccc(-c2oc3cc(OC)c(I)cc3c(=O)c2O)cc1` [Compound 3p, 3-Hyd.roxy-6-iodo-7-methoxy-2-(4-methoxyphenyl)-4H-chromen-4-one], for which, in assay [1], the “SI BChE/AChE” value is listed as 0.45 and it took 7.19 ± 0.02 µM to reach half-maximal inhibition (IC50). Besides, in assay [2], the “SI AChE/BChE” value is listed as 2.18 and half-maximal inhibition (IC50) was put at 3.29 ± 0.03 µM. Also, the 50% inhibitory concentration (IC50) in assay [3] stood at 22.44 ± 0.07 µM. In addition, in assay [5], affinity was put at a Ki of 0.46 ± 0.16 µM and the “mode of inhibition of BChE” value is listed as “mixed kinetic type of inhibition”.
Take `O=C(/C=C/c1ccc(F)cc1)c1cc(I)c(Br)cc1O` [Compound 2j, (E)-1-(4-Bromo-2-hydroxy-5-iodophenyl)-3-(4-fluorophenyl)propenone]: in assay [1], the “SI BChE/AChE” value was 0.52 and the IC50 stood at 10.98 ± 0.03 µM. In addition, in assay [2], the “SI AChE/BChE” value was 1.92 and the IC50 was 5.73 ± 0.05 µM. Besides, it took 4.7 µM to reach half-maximal inhibition in assay [3] (IC50). This molecule also showed a Ki in assay [6] of 3.04 ± 2.31 µM.
On to `COc1ccc(-c2oc3cc(Br)c(I)cc3c(=O)c2O)cc1` [Compound 3l, 7-Bro.mo-3-hydroxy-6-iodo-2-(4-methoxyphenyl)-4H-chromen-4-one], for which the IC50 in assay [3] is 15.74 ± 0.12 µM. In assay [6], this molecule registered a Ki of 1.21 ± 0.66 µM.
As to `COc1ccc(/C=C/C(=O)c2cc(I)c(Cl)cc2O)cc1` [Compound 2h, (E)-1-(4-Chloro-2-hydroxy-5-iodophenyl)-3-(4-methoxyphenyl)propenone], in assay [1], the “SI BChE/AChE” value was 0.36 and half-maximal inhibition (IC50) required 11.72 ± 0.07 µM. In assay [2], the “SI AChE/BChE” value was 2.81 and the IC50 turned out to be 4.17 ± 0.15 µM. In addition, 13.82 ± 0.03 µM corresponded to half-maximal inhibition in assay [3] (IC50). In assay [5], affinity was put at a Ki of 1.36 ± 0.17 µM and the “mode of inhibition of BChE” value is “non-competitive inhibitor”.
